Experimental data: PubChem BioAssay AID330 (DTP/NCI, 2004)
“And” between values parts separate entries of the source, which are not always exact repeats. Equal entries are not always repeated. Inconclusive results and toxic doses are left out. How the source made its calls: active means survival T/C of 150% or more; inactive means T/C below 125% in these data.

Tested on: P388 leukemia ip, CD2F1 mice, survival T/C
Assay: NCI In Vivo Anticancer Drug Screen. Data for tumor model P388 Leukemia (intraperitoneal) in CD2F1 (CDF1) mice
Settings: endpoint: median survival time, higher = longer survival
In short: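 Mice carrying the transplanted tumor received test compound or vehicle. Survival was recorded in each group, and the value is the treated-group measurement divided by that of the vehicle-treated control group.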

[1] = dose: 50.0 mg/kg/injection, schedule: Q01DX005 (ip), vehicle: Klucel (hydroxypropylcellulose) (HPC)
[2] = dose: 100.0 mg/kg/injection, schedule: Q01DX005 (ip), vehicle: Klucel (hydroxypropylcellulose) (HPC)
[3] = dose: 200.0 mg/kg/injection, schedule: Q01DX005 (ip), vehicle: Klucel (hydroxypropylcellulose) (HPC)
[4] = dose: 50.0 mg/kg/injection, schedule: Q01DX005 (ip), vehicle: saline with Tween-80
[5] = dose: 100.0 mg/kg/injection, schedule: Q01DX005 (ip), vehicle: saline with Tween-80
[6] = dose: 100.0 mg/kg/injection, schedule: Q01DX009 (ip), vehicle: saline with Tween-80
[7] = dose: 200.0 mg/kg/injection, schedule: Q01DX009 (ip), vehicle: saline with Tween-80
[8] = dose: 100.0 mg/kg/injection, schedule: Q04DX002 (ip), vehicle: saline with Tween-80
[9] = dose: 25.0 mg/kg/injection, schedule: Q04DX003 (ip), vehicle: saline with Tween-80
[10] = dose: 50.0 mg/kg/injection, schedule: Q04DX003 (ip), vehicle: saline with Tween-80
[11] = dose: 60.0 mg/kg/injection, schedule: Q01DX005 (ip), vehicle: saline with Tween-80
[12] = dose: 240.0 mg/kg/injection, schedule: Q01DX005 (ip), vehicle: saline with Tween-80

Measured: T/C

COc1cccc2c1C(=O)c1c(O)c3c(c(O)c1C2=O)CC(O)(C(C)O)CC3OC1CCN(c2ccccc2)CC(C)O1 (stereo not drawn)
inactive: dose: 3.13 mg/kg/injection, schedule: Q04DX003 (ip), vehicle: distilled water + Tween-80 103 % of control | dose: 6.25 mg/kg/injection, schedule: Q04DX003 (ip), vehicle: distilled water + Tween-80 100 % of control | dose: 12.5 mg/kg/injection, schedule: Q04DX003 (ip), vehicle: distilled water + Tween-80 108 % of control | dose: 25.0 mg/kg/injection, schedule: Q04DX003 (ip), vehicle: distilled water + Tween-80 105 % of control | dose: 50.0 mg/kg/injection, schedule: Q04DX003 (ip), vehicle: distilled water + Tween-80 104 % of control | dose: 100.0 mg/kg/injection, schedule: Q04DX003 (ip), vehicle: distilled water + Tween-80 105 % of control | dose: 200.0 mg/kg/injection, schedule: Q04DX003 (ip), vehicle: distilled water + Tween-80 124 % of control | dose: 400.0 mg/kg/injection, schedule: Q04DX003 (ip), vehicle: distilled water + Tween-80 101 % of control

COC1OC(COC(=O)c2ccccc2)C(=O)C(OC(=O)c2ccccc2)C1N(O)C1C(COC(=O)c2ccccc2)OC2OC(C)(C)OC21 (stereo not drawn)
inactive: [1] 101 % of control | [2] 105 % of control | [3] 100 % of control

O=C1C(=Cc2cc(Cl)c(O)c(Cl)c2)C(=O)c2ccccc21
inactive: dose: 100.0 mg/kg/injection, schedule: Q04DX002 (ip), vehicle: saline 97 % of control | dose: 200.0 mg/kg/injection, schedule: Q04DX002 (ip), vehicle: saline 86 % of control | dose: 400.0 mg/kg/injection, schedule: Q04DX002 (ip), vehicle: saline 88 % of control

CCC[CH2][Sn]([CH2]CCC)([S]/C(C#N)=N/N=C/c1ccc(N(C)C)cc1)[S]/C(C#N)=N/N=C/c1ccc(N(C)C)cc1
inactive: dose: 7.5 mg/kg/injection, schedule: Q01DX005 (ip), vehicle: saline with Tween-80 117 % of control

NC(=O)C(Br)(Br)C(=O)c1nc(N)nc(N)n1
inactive: [4] 107 % of control | [5] 99 % of control

COc1ccc(OC(=O)Nc2cc(Cl)c(OC)cc2OC)c(Cl)c1
inactive: dose: 50.0 mg/kg/injection, schedule: Q01DX009 (ip), vehicle: saline + alcohol 98 % of control | dose: 100.0 mg/kg/injection, schedule: Q01DX009 (ip), vehicle: saline + alcohol 105 % of control | dose: 200.0 mg/kg/injection, schedule: Q01DX009 (ip), vehicle: saline + alcohol 96 % of control

Cc1cc(N(C)C)c2ccc3c(ccc4c(N(C)C)cc(C)nc43)c2n1
inactive: dose: 25.0 mg/kg/injection, schedule: Q01DX009 (ip), vehicle: saline with Tween-80 94 % of control | [6] 103 % of control | [7] 99 % of control

NCCCCC(C(=O)NC(Cc1ccc(O)cc1)C(=O)NN)N(C(=O)OCc1ccccc1)C(=O)OCc1ccccc1 (stereo not drawn)
inactive: dose: 50.0 mg/kg/injection, schedule: Q01DX005 (ip), vehicle: saline + Tween-80 + alcohol 107 % of control | dose: 100.0 mg/kg/injection, schedule: Q01DX005 (ip), vehicle: saline + Tween-80 + alcohol 104 % of control | dose: 200.0 mg/kg/injection, schedule: Q01DX005 (ip), vehicle: saline + Tween-80 + alcohol 94 % of control

COc1ccc2c(c1)C(c1ccccc1)SC(c1ccccc1)=C2 (stereo not drawn)
inactive: dose: 50.0 mg/kg/injection, schedule: Q01DX009 (ip), vehicle: Klucel (hydroxypropylcellulose) (HPC) 107 % of control | dose: 100.0 mg/kg/injection, schedule: Q01DX009 (ip), vehicle: Klucel (hydroxypropylcellulose) (HPC) 100 % of control | dose: 200.0 mg/kg/injection, schedule: Q01DX009 (ip), vehicle: Klucel (hydroxypropylcellulose) (HPC) 99 % of control

CC(C)(C)N=NNc1ccc(C#N)cc1
inactive: [8] 87 % of control | dose: 200.0 mg/kg/injection, schedule: Q04DX002 (ip), vehicle: saline with Tween-80 88 % of control | dose: 400.0 mg/kg/injection, schedule: Q04DX002 (ip), vehicle: saline with Tween-80 88 % of control

CC(C)C(C=O)C(O)(C(F)(F)F)C(F)(F)Cl (stereo not drawn)
inactive: dose: 12.5 mg/kg/injection, schedule: Q04DX003 (ip), vehicle: saline with Tween-80 100 % of control | [9] 90 % of control | [10] 95 % of control

O=C(NC(CCS(=O)(=O)NCCCl)C(=O)OCc1ccccc1)OCc1ccccc1 (stereo not drawn)
inactive: dose: 12.5 mg/kg/injection, schedule: Q01DX009 (ip), vehicle: other 104 % of control | dose: 25.0 mg/kg/injection, schedule: Q01DX009 (ip), vehicle: other 90 % of control | dose: 50.0 mg/kg/injection, schedule: Q01DX009 (ip), vehicle: other 105 % of control | dose: 100.0 mg/kg/injection, schedule: Q01DX009 (ip), vehicle: other 103 % of control | dose: 200.0 mg/kg/injection, schedule: Q01DX009 (ip), vehicle: other 91 % of control

CN1CC(=O)NC2C(=CN(Cc3ccccc3)c3ccccc32)C1=O (stereo not drawn)
inactive: [11] 100 % of control | dose: 120.0 mg/kg/injection, schedule: Q01DX005 (ip), vehicle: saline with Tween-80 90 % of control | [12] 90 % of control

c1ccc(-c2ccc[n+](CCCC[n+]3cccc(-c4ccccn4)c3)c2)nc1
inactive: dose: 7.5 mg/kg/injection, schedule: Q01DX005 (ip), vehicle: saline 106 % of control | dose: 15.0 mg/kg/injection, schedule: Q01DX005 (ip), vehicle: saline 106 % of control

Cc1cc(C)n(C(=N)/C(C#N)=N/N(C)c2ccccc2)n1
inactive: dose: 25.0 mg/kg/injection, schedule: Q04DX002 (ip), vehicle: saline with Tween-80 100 % of control | dose: 50.0 mg/kg/injection, schedule: Q04DX002 (ip), vehicle: saline with Tween-80 93 % of control | [8] 90 % of control

Cc1cc(C)c2c(n1)sc1c(=O)n(N)c(C)nc12
inactive: [11] 87 % of control | [12] 94 % of control and 95 % of control

NC(=S)NC1OC(COC(=O)c2ccccc2)C(OC(=O)c2ccccc2)C1OC(=O)c1ccccc1 (stereo not drawn)
inactive: [9] 98 % of control | [10] 107 % of control | dose: 100.0 mg/kg/injection, schedule: Q04DX003 (ip), vehicle: saline with Tween-80 100 % of control | dose: 200.0 mg/kg/injection, schedule: Q04DX003 (ip), vehicle: saline with Tween-80 106 % of control

CCC[C@H]1N=C(OCC)N[C@@H]1CCC
inactive: dose: 6.25 mg/kg/injection, schedule: Q01DX005 (ip), vehicle: Klucel (hydroxypropylcellulose) (HPC) 108 % of control | dose: 12.5 mg/kg/injection, schedule: Q01DX005 (ip), vehicle: Klucel (hydroxypropylcellulose) (HPC) 117 % of control

CCOC(=O)CSc1cc(O)c2ccccc2c1N=Nc1ccc(C(=O)OCC)cc1
inactive: [4] 104 % of control | [5] 110 % of control | dose: 200.0 mg/kg/injection, schedule: Q01DX005 (ip), vehicle: saline with Tween-80 114 % of control

Cc1cc(C)[nH]n1
inactive: [6] 110 % of control | [7] 105 % of control | dose: 400.0 mg/kg/injection, schedule: Q01DX009 (ip), vehicle: saline with Tween-80 120 % of control

CCOC(=O)Nc1nc2ccccc2n1CN1CCN(C)CC1
inactive: dose: 25.0 mg/kg/injection, schedule: Q01DX005 (ip), vehicle: Klucel (hydroxypropylcellulose) (HPC) 99 % of control | [1] 102 % of control and 97 % of control | [2] 100 % of control and 107 % of control | [3] 113 % of control and 120 % of control

ClC1=CC(Cl)=C2N=C(N3CCCC3)N=C3N=C(C(Cl)(Cl)Cl)N=C1N32
inactive: dose: 60.0 mg/kg/injection, schedule: Q01DX005 (ip), vehicle: Klucel + Tween-80 96 % of control | dose: 120.0 mg/kg/injection, schedule: Q01DX005 (ip), vehicle: Klucel + Tween-80 96 % of control | dose: 240.0 mg/kg/injection, schedule: Q01DX005 (ip), vehicle: Klucel + Tween-80 87 % of control

CC(CCCCCCCC1CC(OS(=O)(=O)O)CCCCCCCCCCCC(OS(=O)(=O)O)CC(OS(=O)(=O)O)CCCCCCCCCCCCCC(=O)O1)OS(=O)(=O)O (stereo not drawn) (tested in a mixture with another compound)
inactive: dose: 25.0 micrograms/kg/injection, schedule: Q01DX005 (ip), vehicle: Klucel (hydroxypropylcellulose) (HPC) 98 % of control | dose: 50.0 micrograms/kg/injection, schedule: Q01DX005 (ip), vehicle: Klucel (hydroxypropylcellulose) (HPC) 103 % of control | dose: 100.0 micrograms/kg/injection, schedule: Q01DX005 (ip), vehicle: Klucel (hydroxypropylcellulose) (HPC) 97 % of control | dose: 200.0 micrograms/kg/injection, schedule: Q01DX005 (ip), vehicle: Klucel (hydroxypropylcellulose) (HPC) 97 % of control
